According to US11390437B2, “Pharmaceutical formulation” (priority 2002, dated 2022):
Entries after “also recorded” stand apart in the source; their conditions may differ.

Assays:
[1] = Effect of light on stability, TLC qualitative analysis; assay type: physicochemical
Protocol: (§1) Samples of the test solutions were withdrawn and diluted as appropriate for HPLC and TLC analysis. HPLC was carried out in accordance with TM GE.004.V1 (SOPam058). TLC was performed on layers on Silica gel (MN SilG/UV) in accordance with TM GE.002.V1 (SOPam056).
The evaluation of the light degraded solutions using thin layer chromatography, used both the existing normal phase system (i.e. Silica stationary phase and hexane/diethyl ether as mobile phase) and two additional systems, capable of resolving more polar or polymeric products formed during the degradation processes.
At the same time, there was an increase in the intensity of Fast Blue B staining material running at, or close to, the origin.

[2] = THC alone versus same quantity of THC as Cannabis extract; cited from earlier work
[3] = CNS effect; Carlini et al, 1973; cited from earlier work
[4] = Cannabinoid uptake in patients, drops applied sublingually; assay type: in vivo, human; conditions: sublingual drops, dose approx 20 mg of each cannabinoid; for Cmax / AUC(0-t): human, plasma; for AUC(0-t): read-out: AUC 0-12
Protocol: Initially the applicant looked at cannabinoid uptake in patients by applying drops sublingually (BDS dissolved in a mixture of a glycerol/propylene glycol and ethanol) THC 5 mg/ml, CBD 5 mg/ml and THC/CBD 5 mg/ml plus 5 mg/ml.
The results are noted in Table 3 below:
The proportion of 11 hydroxy tetrahydro cannabinol to THC (AUC 0-12) was about 1.9 indicating a significant amount of oral ingestion may have occurred.
(§2) The data obtained is illustrated in FIGS. 1a, 1b and 2, which show the mean plasma concentrations for the formulations identified with reference to Tables 3 and 4.

[5] = Relative thermo-oxidative stability; conditions: THC versus CBD
[6] = postural hypotension in naïve patients, hypertension reported on prolonged usage; cited from earlier work
[7] = Cannabinoid uptake, pump action sublingual spray; assay type: in vivo, human; conditions: dose approx 21 mg THC and 35 mg CBD; for Cmax / AUC(0-t): human, plasma; for AUC(0-t): read-out: AUC 0-12
Protocol: On moving to a pump action sublingual spray (following problems solubilising cannabinoids with hydrofluorocarbon propellant systems) the applicant obtained the results noted in Table 4. The solvent system comprised 50:50 ethanol to propylene glycol (v/v ratio) with THC 25 mg/ml; CBD 50 mg/ml and THC/CBD 25 mg/ml plus 50 mg/ml respectively.
The proportion of 11 hydroxy tetrahydro cannabinol to THC (AUC 0-12) was about 1.6. The profile for each cannabinoid was similar irrespective of the formulation (THC, CBD, THC plus CBD).
as §2
That effective delivery of the cannabinoids can be achieved in a vehicle consisting of ethanol and propylene glycol is illustrated by the plasma levels shown in FIGS. 1a, 1b and 2. These show, respectively, formulations containing the high THC and high CBD formulations in FIGS. 1a and 1b. Similarly, the effectiveness of a defined ratio formulation THC:CBD 1:1 is illustrated in FIG. 2.

[8] = Effect of light on stability of methanolic CBME solutions, HPLC; assay type: physicochemical; conditions: for residual compound: amber glass protected, 112 days
From the text: Experiments were set up to follow the effects of white light on the stability of methanolic solutions of THC, CBD or THCV. Following preliminary knowledge that light of different wavelengths may have differing effects on compound stability (viz. tretinoin is stable only in red light or darkness), samples were wrapped in coloured acetate films or in light exclusive foil. A concurrent experiment used charcoal treated CBME to study the effects of the removal of plant pigments on the degradation process.
Cannabinoids: 1 mg/ml solutions of CBME were made up in AR methanol. Methanolic solutions of CBME (100 mg/ml) were passed through charcoal columns (Biotage Flash 12AC 7.5 cm cartridges, b/no. 273012S) and were then diluted to 1 mg/ml. Solutions were stored in soda-glass vials, which were tightly screw capped and oversealed with stretch film. Tubes were wrapped in coloured acetate films as follows:
Solutions were also filled into the amber glass U-save vials; these were sealed with a septum and oversealed. One tube of each series of samples was tightly wrapped in aluminium foil in order to completely exclude light. This served as a “dark” control to monitor the contribution of ambient temperature to the degradation behaviour. All of the above tubes were placed in a box fitted with 2×40 watt white Osram fluorescent tubes. The walls of the box were lined with reflective foil and the internal temperature was monitored at frequent intervals.
A further tube of each series was stored at −20° C. to act as a pseudo to the reference sample; in addition, one tube was exposed directly to light without protection. Samples were withdrawn for chromatographic analysis at intervals up to 112 days following the start of the study. The study was designated AS01201/AX282.
as §1
The results from the HPLC analysis of samples drawn from the stored, light exposed solutions, are plotted and presented as FIGS. 6 and 6a (THC before and after charcoal treatment), and FIGS. 7 and 7a (CBD before and after charcoal treatment).

[9] = Absorption (AUC) by route of administration, Example 3; conditions: after oropharyngeal (buccal) versus sublingual administration
[10] = Reports of subjects taking THCV; conditions: compared with THC

## CCCCCc1cc(O)c2c(c1)OC(C)(C)[C@@H]1CCC(C)=C[C@@H]21 [THC, Δ^9-tetrahydrocannabinol]
[1]; day 112, all colour filtered lights, hexane/diethyl ether system
  TLC spot intensity: reduction in the intensity
[1]; day 112, foil protected solution
  TLC spot intensity: none of these effects
[2]
  degree of pain relief: lower degree of pain relief than the same quantity of THC given as an extract of Cannabis
[3]
  Anticonvulsant: † THC is pro convulsant
[4]
  Cmax: 6 ng/mL
  AUC(0-t): ~16 ng·h/mL
  Plasma levels after 6 hours: ~1 ng/mL
[5]
  relative thermo-oxidative stability: less stable
[6]
  effect on blood pressure: § THC has a biphasic effect on blood pressure; in naïve patients it may produce postural hypotension and it has also been reported to produce hypertension on prolonged usage.
[7]
  Plasma levels after 6 hours: Plasma levels after 6 hours were about 1 ng/ml THC and 1 ng/ml CBD
  Cmax: 6 ng/mL
  AUC(0-t): ~16 ng·h/mL
[8]; all solutions except those stored in the dark and at −20° C.
  stability of charcoal treated versus untreated extract: significant improvements to the stability

## CCCCCc1cc(O)c2c(c1)OC(C)(C)[C@@H]1CCC(CO)=C[C@@H]21 [11-OH THC, 11 hydroxy tetrahydro cannabinol]
[9]
  reduction in the amount of 11-hydroxy metabolite detected: approximately 25%

## CCCc1cc(O)c2c(c1)OC(C)(C)[C@@H]1CCC(C)=C[C@@H]21 [THCV, Δ^9-tetrahydrocannabinol propyl analogue]
[10]
  hangover: less severe hangover
  mood enhancement as reported by subjects: less disturbing than that produced by THC

## C=C(C)[C@@H]1CCC(C)=C[C@H]1c1c(O)cc(CCCCC)cc1O [CBD, cannabidiol]
[4]
  Cmax: 2 ng/mL
  AUC(0-t): ~8 ng·h/mL
  Plasma levels after 6 hours: ~0.5 ng/mL
[7]
  Plasma levels after 6 hours: Plasma levels after 6 hours were about 1 ng/ml THC and 1 ng/ml CBD
  Cmax: 8 ng/mL
  AUC(0-t): ~22 ng·h/mL
[8]; after charcoal treatment
  residual compound: approximately 64%
[8]; without charcoal clean up
  residual compound: ~38%
[8]; light exposed methanolic CBME solutions
  relative stability under photochemical stress: significantly more sensitive to the effects of light than is THC; also recorded: markedly less stable than THC
[8]; no charcoal treatment, all light exposures except amber glass, foil and −20° storage, 1 mg/ml CBME in methanol
  time to degradation to non-detectable levels: < 40 days
